Reference: PMC11211886 (Frontiers in Pharmacology, 2024)
Each block holds one molecule with its values, some of them ahead of it.

Legend:
P-gp = P-gp (Homo sapiens, UniProt P08183); assay: in vitro; settings: human, Caco-2
Excerpt: The experimental conditions were similar to those of the permeability study.

CYP1A2 = assay: in vitro; settings: human; for fold induction at 48 h, 50 µM: Enzyme activity Fold Induction
Protocol: (§1) […] […] […] Enzyme activity for each CYP isoform was reported as a fold change over vehicle control and the percent of positive control (detailed calculation in Supplementary 1.1). Hepatocytes were harvested with a lysis buffer from RNeasy 96 Kit (Qiagen Inc., Germantown, MD, USA) to isolate RNA, which was analyzed by real-time quantitative polymerase chain reaction (RT-PCR). […] Emax (the maximal observed induction) and EC50 (the concentration that supports half-maximal induction) were estimated by non-linear regression of fold increase in CYP mRNA expression versus concentration plots.
(§2) The fold of vehicle control and the percent of positive control were calculated with the formulas below:
(§3) Fold of vehicle control = CYPs activity of test compound (or positive control) treated sample / CYPs activity of vehicle control treated sample
(§4) % of positive control = [(fold change in treated sample)-1] / [(fold change in positive control)-1] × 100
(§5) Based on the enzyme activity, a minimum of 2-fold increase compared to vehicle control for the positive control and ≥40% of the positive control for the test article was considered as the cutoff for a positive signal in in vitro induction assay.

CYP1A2 mRNA = assay: in vitro; settings: human; for fold induction at 48 h, 50 µM: Gene expression Fold Induction
Protocol: as §1, §4
(§6) Based on the gene expression, a minimum of 4-fold increase of positive control compared to vehicle control, a minimum of 2-fold increase of the test article compared vehicle control and increased in a concentration-dependent manner was considered as the cutoff for a positive signal in in vitro induction assay.

CYP2C8 = assay: in vitro; settings: human; for fold induction at 48 h, 25 µM: Enzyme activity Fold Induction
Protocol: as §1, §2, §3, §4, §5

CYP2C9 = assay: in vitro; settings: human; for fold induction at 48 h, 25 µM: Enzyme activity Fold Induction
Protocol: as §1, §2, §3, §4, §5

CYP2C19 = assay: CYP induction in human hepatocytes, CYP2C19 enzyme activity; type: in vitro ADME; settings: 25 µM
Protocol: as §1, §2, §3, §4, §5

CYP2C9 mRNA = assay: CYP induction in human hepatocytes, CYP2C9 mRNA (RT-PCR); settings: for Gene expression Percent of PC (%): 25 µM
Protocol: as §1, §4, §6

CYP2C8 mRNA = assay: in vitro; settings: human; for fold induction at 48 h, 25 µM: Gene expression Fold Induction
Protocol: as §1, §4, §6

[1] = among marketed PI3Kδ inhibitors; ref FDA, 2014; FDA, 2017, 2018, 2021; cited from earlier work
[2] = clinical trials; ref FDA, 2014; FDA, 2017, 2018, 2021; cited from earlier work
[3] = ref FDA, 2021; cited from earlier work

Chain of P-gp (P08183 whole entry): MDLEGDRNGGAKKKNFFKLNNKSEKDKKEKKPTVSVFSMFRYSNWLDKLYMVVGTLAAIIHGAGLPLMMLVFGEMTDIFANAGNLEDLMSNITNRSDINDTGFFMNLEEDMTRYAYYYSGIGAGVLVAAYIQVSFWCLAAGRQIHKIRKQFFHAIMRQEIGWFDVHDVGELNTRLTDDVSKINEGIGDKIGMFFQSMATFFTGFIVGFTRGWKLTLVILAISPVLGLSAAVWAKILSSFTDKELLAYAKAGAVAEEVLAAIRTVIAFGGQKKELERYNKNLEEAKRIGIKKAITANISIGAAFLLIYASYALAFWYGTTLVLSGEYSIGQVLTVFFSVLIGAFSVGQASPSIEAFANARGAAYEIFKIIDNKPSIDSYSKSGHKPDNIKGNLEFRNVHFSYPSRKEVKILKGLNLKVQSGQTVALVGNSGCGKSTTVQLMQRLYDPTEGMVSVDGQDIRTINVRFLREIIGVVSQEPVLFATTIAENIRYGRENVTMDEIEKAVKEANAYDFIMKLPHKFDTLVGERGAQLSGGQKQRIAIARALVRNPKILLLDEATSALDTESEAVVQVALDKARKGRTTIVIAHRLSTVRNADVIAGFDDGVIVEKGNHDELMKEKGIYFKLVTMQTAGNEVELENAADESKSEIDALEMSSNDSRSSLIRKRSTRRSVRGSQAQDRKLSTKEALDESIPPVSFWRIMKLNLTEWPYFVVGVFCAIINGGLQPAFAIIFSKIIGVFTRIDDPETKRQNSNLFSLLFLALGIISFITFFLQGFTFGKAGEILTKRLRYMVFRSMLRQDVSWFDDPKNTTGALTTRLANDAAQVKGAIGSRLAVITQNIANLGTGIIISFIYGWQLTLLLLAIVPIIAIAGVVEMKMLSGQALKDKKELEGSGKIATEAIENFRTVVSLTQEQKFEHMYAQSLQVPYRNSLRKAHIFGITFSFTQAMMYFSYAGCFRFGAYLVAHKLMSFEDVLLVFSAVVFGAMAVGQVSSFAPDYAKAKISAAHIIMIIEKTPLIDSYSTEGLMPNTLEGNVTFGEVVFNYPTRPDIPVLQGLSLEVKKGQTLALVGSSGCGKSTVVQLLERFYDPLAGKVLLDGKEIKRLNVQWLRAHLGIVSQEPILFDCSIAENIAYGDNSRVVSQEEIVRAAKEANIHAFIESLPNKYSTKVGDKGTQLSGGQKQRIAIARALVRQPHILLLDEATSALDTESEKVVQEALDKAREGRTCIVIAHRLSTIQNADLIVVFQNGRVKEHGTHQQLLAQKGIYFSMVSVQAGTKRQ

Papp B→A at 60 min, 5 µM (P-gp): 25 ×10⁻⁶ cm/s
SMILES: C[C@H]1O[C@@H](O[C@H]2[C@@H](O)C[C@H](O[C@H]3[C@@H](O)C[C@H](O[C@H]4CC[C@@]5(C)[C@H](CC[C@@H]6[C@@H]5C[C@@H](O)[C@]5(C)[C@@H](C7=CC(=O)OC7)CC[C@]65O)C4)O[C@@H]3C)O[C@@H]2C)C[C@H](O)[C@@H]1O [Digoxin, reference compound]

Enzyme activity Fold Induction (CYP1A2; female, 48 h, 50 µM): 3.37 fold
fold induction at 48 h, 50 µM (CYP1A2; female): 4.95
fold induction at 48 h, 50 µM (CYP1A2; male): 5.22
Gene expression Fold Induction (CYP1A2 mRNA; female, 48 h, 50 µM): 25.5 fold
fold induction at 48 h, 50 µM (CYP1A2 mRNA; female): 15.6
fold induction at 48 h, 50 µM (CYP1A2 mRNA; male): 20.3
SMILES: COc1ccc2[nH]c([S+]([O-])Cc3ncc(C)c(OC)c3C)nc2c1 (centres unmarked) [Omeprazole]

SMILES: CCOC(=O)c1ncn2c1CN(C)C(=O)c1cc(F)ccc1-2 [Flumazenil]
Enzyme activity Percent of PC (%) (CYP2C8; female, 48 h, 25 µM): 3.75%
fold induction at 48 h, 25 µM (CYP2C8; female): 1.18
Enzyme activity Fold Induction (CYP2C8; male, 48 h, 25 µM): 1.39 fold
fold induction at 48 h, 25 µM (CYP2C8; male): 1.05
Enzyme activity Percent of PC (%) (CYP2C9; female, 48 h, 25 µM): 6.88%
fold induction at 48 h, 25 µM (CYP2C9; female): 1.11
Enzyme activity Fold Induction (CYP2C9; male, 48 h, 25 µM): 1.14 fold
fold induction at 48 h, 25 µM (CYP2C9; male): 1.05
Enzyme activity Percent of PC (%) (CYP2C19; CYP2C19, donor eight): -3.72%
Enzyme activity Percent of PC (%) (CYP2C19; CYP2C19, donor four): -3.91%
Enzyme activity Percent of PC (%) (CYP2C19; CYP2C19, donor one): 1.83%
fold induction at 48 h, 25 µM (CYP2C19; human three, cryopreserved human hepatocytes, probe S-(+)-mephenytoin (80 µM), CYP2C19, donor eight): 0.87
Gene expression Percent of PC (%) (CYP2C9 mRNA; CYP2C9, donor eight): 12.1%
Gene expression Percent of PC (%) (CYP2C9 mRNA; CYP2C9, donor four): 19.7%
Gene expression Percent of PC (%) (CYP2C9 mRNA; CYP2C9, donor one): 25.6%
fold induction at 48 h, 25 µM (CYP2C9 mRNA; female, human): 1.83
fold induction at 48 h, 25 µM (CYP2C9 mRNA; human three, cryopreserved human hepatocytes (donor four)): 1.52
fold induction at 48 h, 25 µM (CYP2C9 mRNA; male, human, cryopreserved human hepatocytes): 1.53
Gene expression Percent of PC (%) (CYP2C8 mRNA; female, 48 h, 25 µM): 15.4%
fold induction at 48 h, 25 µM (CYP2C8 mRNA; female): 1.89
Gene expression Fold Induction (CYP2C8 mRNA; male, 48 h, 25 µM): 0.92 fold
fold induction at 48 h, 25 µM (CYP2C8 mRNA; male): 1.05

SMILES: CC(C)Oc1ccc(-c2nn([C@@H](C)c3oc4ccc(F)cc4c(=O)c3-c3cccc(F)c3)c3ncnc(N)c23)cc1F [umbralisib, Umbralisib]
Vz/F in human [1]: highest Vz/F among these drugs
incidence of ≥Grade 3 GI toxicity, including diarrhea and colitis [2]: higher than 10%
exposure in the intestines versus plasma [3]: 100 fold
